This is an account of results in ChEMBL document CHEMBL1131395, “Novel antineoplastic agents with efficacy against multidrug resistant tumor cells” (1998).

Common to all, as to type: functional
The subject of test [1] is CAKI-1. Kind of test: Compound was tested in vitro for growth inhibition of CAKI-1 cells derived from human renal tumor.
The subject of test [2] is COLO 205. Briefly: Compound was tested in vitro for growth inhibition of COLO 205 cells derived from human colon tumor.
Test [3] relates to CCRF-CEM. Kind of test: Compound was tested in vitro for growth inhibition of CCRF-CEM cells derived from human leukemia.
The subject of test [4] is MCF7. Briefly: Compound was tested in vitro for growth inhibition of MCF-7 cells derived from human breast tumor.
Test [5] relates to MDA-N. Kind of test: Compound was tested in vitro for growth inhibition of MDA-N cells derived from human breast tumor.
Test [6] concerns NCI/ADR-RES. Kind of test: Compound was tested in vitro for growth inhibition of MCF-7/ADR cells that exhibit MDR phenotype. Conditions: Homo sapiens.
Test [7] relates to OVCAR-8. Briefly: Compound was tested in vitro for growth inhibition of OVCAR-8 cells derived from human ovarian tumor.
In test [8] the test system is NCI-H522. Briefly: Compound was tested in vitro for growth inhibition of […] cells derived from human lung tumor.
The test system of test [9] is P388. Kind of test: Compound was tested in vitro for growth inhibition of murine leukemic P388 cells. The following applies: Mus musculus.
Test [10] deals with P388/ADR. Briefly: Compound was tested in vitro for growth inhibition of murine leukemic P388/ADR cells that exhibit MDR phenotype. The following applies: Mus musculus.
Test [11] concerns SF-295. Kind of test: Compound was tested in vitro for growth inhibition of SF 295 cells derived from CNS tumor. Conditions: Homo sapiens.
Test [12] deals with SK-MEL-5. Briefly: Compound was tested in vitro for growth inhibition of SK-MEL-5 cells derived from human melanoma.
Test [13] relates to PC-3. Briefly: Compound was tested in vitro for growth inhibition of PC 3 cells derived from human prostate tumor.

Consider `Cc1ccc(NS(=O)(=O)c2c(F)c(F)c(F)c(F)c2F)cc1C`, for which the GI50 in test [1] stood at 479 nM; in [2], 220 nM; in test [3], 68 nM; in [4], 120 nM; in test [5], 123 nM; in test [6] it was 320 nM. For the same molecule, the GI50 in test [7] is 437 nM; in [8] it was 49 nM; in test [9], 37 nM; in [10] it was 110 nM; in test [11], 479 nM; in test [12], 151 nM. The GI50 in test [13] is 468 nM.
Take `COc1ccc(NS(=O)(=O)c2ccc(F)c(F)c2F)cc1`: the GI50 was 5500 nM in test [1]; 1300 nM in test [2]; 600 nM in test [3]; 1400 nM in [5]; 5000 nM in test [7]; 371 nM in test [8]. The GI50 in [11] amounted to 2700 nM; in test [12], 1000 nM; in [13] it was 3200 nM.
In the case of `COc1ccc(NS(=O)(=O)c2c(F)c(F)c(F)c(F)c2F)cc1`, the concentration for 50% growth inhibition (GI50) in test [1] is 56 nM; in test [2], under 10 nM; in test [3], under 10 nM; in test [4], 29 nM; in [5], 41 nM; in test [6], 58 nM. Also, the GI50 is 50 nM in test [7]; under 10 nM in test [8]; 12 nM in test [9]; 34 nM in test [10]; 11 nM in test [11]; under 10 nM in test [12]. The 50% growth inhibitory concentration (GI50) in test [13] was under 10 nM.
In the case of `CN(C)c1ccc(NS(=O)(=O)c2c(F)c(F)c(F)c(F)c2F)cc1`, the GI50 is 417 nM in test [1]; 220 nM in [2]; 320 nM in [3]; 34 nM in test [4]; 30 nM in test [5]; 96 nM in test [6]. For the same molecule, the 50% growth inhibitory concentration (GI50) in test [7] was 372 nM; in test [8], 58 nM; in [9] it was 27 nM; in [10], 36 nM; in [11], 501 nM; in test [12] it was 183 nM. In addition, the GI50 in test [13] amounted to 525 nM.
As to `O=S(=O)(Nc1ccc2[nH]ccc2c1)c1c(F)c(F)c(F)c(F)c1F`, the GI50 in test [1] was 72 nM; in test [2] it was 14 nM; in test [3], under 10 nM; in [4] it was 28 nM; in test [5] it was 21 nM; in [6], 115 nM. In addition, the GI50 is 50 nM in test [7]; under 10 nM in test [8]; 12 nM in test [9]; 32 nM in [10]; 40 nM in test [11]; 13 nM in test [12]. In [13], this molecule registered a GI50 of 35 nM.
Consider `O=S(=O)(Nc1ccc2c(c1)OCCO2)c1c(F)c(F)c(F)c(F)c1F`, for which the concentration for 50% growth inhibition (GI50) in test [1] was determined as 63 nM; in test [2] it was 19 nM; in test [3], 51 nM; in [4], 430 nM; in test [5], 40 nM; in test [6] it was 410 nM. For the same molecule, the GI50 amounted to 91 nM in test [7]; 26 nM in test [8]; 140 nM in test [9]; 340 nM in [10]; 54 nM in test [11]; 20 nM in test [12]. In test [13], this molecule showed a GI50 of 62 nM.
Consider `CC(=O)O[C@H]1C(=O)[C@@]2(C)[C@H]([C@H](OC(=O)c3ccccc3)[C@]3(O)C[C@H](OC(=O)[C@H](O)[C@@H](NC(=O)c4ccccc4)c4ccccc4)C(C)=C1C3(C)C)[C@]1(OC(C)=O)CO[C@@H]1C[C@@H]2O` [PACLITAXEL], for which the GI50 was 1.1 nM in test [4], over 15000 nM in test [6], 16 nM in test [9] and over 15000 nM in test [10].
`CC[C@]1(O)C[C@@H]2CN(CCc3c([nH]c4ccccc34)[C@@](C(=O)OC)(c3cc4c(cc3OC)N(C)[C@H]3[C@@](O)(C(=O)OC)[C@H](OC(C)=O)[C@]5(CC)C=CCN6CC[C@]43[C@@H]65)C2)C1` [VINBLASTINE]: the GI50 was determined as 2.3 nM in [4], 350 nM in [6], 4.1 nM in [9] and 470 nM in test [10].
